# Laboratory results reported in ChEMBL document CHEMBL3044688, “Degradation of the Herbicides Thiobencarb, Butachlor and Molinate by a Newly Isolated Aspergillus niger” (J Pestic Sci, 2004).
# What was measured:
# Type in all cases: ADME, organism-based
# Aspergillus niger [1] = test: Drug degradation in Aspergillus niger van Tieghem grown on sucrose-containing Czapek-Dox medium at 100 ppm after 7 days; settings: 168 h
# Aspergillus niger [2] = test: Drug degradation in Aspergillus niger van Tieghem grown on sucrose-containing Czapek-Dox medium at 20 ppm after 7 days; settings: 168 h
# Aspergillus niger [3] = test: Drug degradation in Aspergillus niger van Tieghem grown on Czapek-Dox medium at 20 ppm after 36 hr at 30 degC in presence of 0.5 to 2 g/l NaNO3
# Aspergillus niger [4] = test: Drug degradation in Aspergillus niger van Tieghem grown on Czapek-Dox medium at 20 ppm after 36 hr at 30 degC in presence of 0.01 g/l NaNO3
# Aspergillus niger [5] = test: Drug degradation in Aspergillus niger van Tieghem grown on Czapek-Dox medium at 20 ppm after 36 hr at 30 degC in presence of 1 g/l NaNO3
# Aspergillus niger [6] = test: Drug degradation in Aspergillus niger van Tieghem at 20 ppm after 36 hr at 30 degC
smiles,measurement,setting,value
CCNc1nc(NC(C)C)nc(SC)n1 [AMETRYNE],Stability,Aspergillus niger [1],Stable
CCCCOCN(C(=O)CCl)c1c(CC)cccc1CC [BUTACHLOR],Stability,Aspergillus niger [2],Unstable
CCSC(=O)N1C=CC=CC=C1 [S-ETHYLAZEPINE-1-CARBOTHIOATE],Stability,Aspergillus niger [1],Unstable
CCN(CC)C(=O)SCc1ccc(Cl)cc1 [THIOBENCARB],Stability,Aspergillus niger [3],Unstable
same,Stability,Aspergillus niger [4],Unstable
same,Stability,Aspergillus niger [5],Unstable
same,Stability,Aspergillus niger [6],Unstable
